# Test results from EP0609518A1, “Optically active aminopyridine derivative and use thereof” (THE GREEN CROSS CORPORATION, priority 1992, dated 1994).
# Tests used:
# [1] = test system: male spontaneously hypertensive rat; assay: Antihypertensive action (systolic pressure by tail-cuff method); type: in vivo; conditions: 3 mg/kg p.o., dissolved in brine, at 1 hour from the oral administration
# Protocol: The compound (hydrochloride) of the present invention obtained in Example 1 was dissolved in brine, and forcibly administered (p.o.) to male spontaneously hypertensive rat at 3 mg/kg. The systolic pressure was measured with a programmable sphygmonanometer (PS-200A, manufactured by Riken Kaihatsu, Japan) by tail-cuff method [Ohkubo H et al. Proc. Natl. Acad. Sci. USA, 87, 5153-5157 (1990)].
# rat = assay: Toxicity by single administration to rat; type: in vivo; conditions: single administration of 450 mg/kg to rat
# Excerpt: Toxicity by single administration to rat
smiles,measurement,setting,value
"Cl.N#CN=C(Nc1ccc(N)nc1)N[C@@H]1C[C@@H]2CC[C@H]1C2 [hydrochloride of (+)-N-(6-amino-3-pyridyl)-N''-cyano-N'-[(1S] [hydrochloride of (+)-N-(6-amino-3-pyridyl)-N''-cyano-N'-[(1S,2R,4R)-2-norbornyl]guanidine]",vasodepressor action,[1],33%
same,death case,rat,did not result in a death case
